Article PMC3500388 (Organic & biomolecular chemistry, 2012)
Where “and” joins values, the source holds several entries; their conditions need not be identical. Equal entries are not always repeated.

What was measured:
full-length human ERα [1] = biological target: T1, full-length human ERα (Homo sapiens, UniProt P03372); assay: Luciferase reporter gene assay in HepG2 cells, ERα, agonist mode; details: for Agonist mode ERα Eff (%E2) / ERα agonist activity / intrinsic activity, in words: HepG2 cells; for Agonist mode ERα Eff (%E2): mean ± s.e.m. as percentage of 10^−7 M E2
T1 sequence (P03372 1-595): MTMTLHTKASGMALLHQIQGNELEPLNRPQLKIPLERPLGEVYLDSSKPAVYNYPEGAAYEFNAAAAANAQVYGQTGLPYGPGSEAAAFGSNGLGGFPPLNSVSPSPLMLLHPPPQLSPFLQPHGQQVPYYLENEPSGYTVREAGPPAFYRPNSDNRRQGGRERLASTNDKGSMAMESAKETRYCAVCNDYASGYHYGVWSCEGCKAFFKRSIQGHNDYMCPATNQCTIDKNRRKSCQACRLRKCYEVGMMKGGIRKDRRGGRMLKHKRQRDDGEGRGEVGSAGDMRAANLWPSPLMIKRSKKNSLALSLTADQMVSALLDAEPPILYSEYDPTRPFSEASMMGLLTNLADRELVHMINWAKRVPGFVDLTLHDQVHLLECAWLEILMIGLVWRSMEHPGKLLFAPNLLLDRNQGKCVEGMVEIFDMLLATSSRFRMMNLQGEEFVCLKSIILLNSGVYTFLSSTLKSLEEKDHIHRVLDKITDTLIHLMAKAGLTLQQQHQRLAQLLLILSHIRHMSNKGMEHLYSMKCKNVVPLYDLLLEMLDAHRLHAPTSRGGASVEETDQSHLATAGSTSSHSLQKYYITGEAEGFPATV

full-length human ERβ = full-length human ERβ (Homo sapiens, UniProt Q92731); assay: Luciferase reporter gene assay in HepG2 cells, ERβ, antagonist mode; assay type: cell-based
full-length human ERα [2] = biological target: T1, full-length human ERα; assay: Luciferase reporter gene assay in HepG2 cells, ERα, antagonist mode; assay type: cell-based
HEC-1 cells = details: cited from earlier work
[3] = biological target: purified full-length human ERβ (Homo sapiens, UniProt Q92731); assay: Competitive radiometric binding assay, ERβ; details: estradiol = 100%; 2 nM [3H]estradiol tracer, 18–24 h at 0 °C
[4] = biological target: T2, purified full-length human ERα (Homo sapiens, UniProt P03372); assay: Competitive radiometric binding assay, ERα; details: estradiol = 100%; 2 nM [3H]estradiol tracer, 18–24 h at 0 °C
T2 sequence (P03372 1-595): T1 sequence (P03372 1-595)

full-length human ERβ, sequence (Q92731 whole entry): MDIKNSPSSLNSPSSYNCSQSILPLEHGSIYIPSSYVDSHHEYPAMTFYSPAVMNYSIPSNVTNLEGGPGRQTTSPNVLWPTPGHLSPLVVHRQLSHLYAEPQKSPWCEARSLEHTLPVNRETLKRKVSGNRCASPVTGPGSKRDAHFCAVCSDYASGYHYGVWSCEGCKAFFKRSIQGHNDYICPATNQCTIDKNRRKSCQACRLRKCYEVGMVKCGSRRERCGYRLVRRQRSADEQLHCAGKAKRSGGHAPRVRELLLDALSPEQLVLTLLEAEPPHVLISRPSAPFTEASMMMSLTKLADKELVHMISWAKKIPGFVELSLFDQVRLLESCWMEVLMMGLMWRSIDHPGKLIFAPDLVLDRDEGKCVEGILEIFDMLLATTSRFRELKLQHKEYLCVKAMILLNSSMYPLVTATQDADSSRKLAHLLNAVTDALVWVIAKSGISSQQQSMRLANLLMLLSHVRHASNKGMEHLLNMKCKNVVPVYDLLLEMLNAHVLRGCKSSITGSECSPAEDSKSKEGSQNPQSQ
purified full-length human ERβ, sequence (Q92731 whole entry): as above

For `CCN(c1ccc(Cl)cc1)S(=O)(=O)C1CC2OC1C(c1ccc(O)cc1)=C2c1ccc(O)cc1` (stereo not shown) [Compound 11l, N-(4-Chlorophenyl)-N-ethyl-5,6-bis(4-hydroxyphenyl)-7-oxabicyclo[2.2.1]hept-5-ene-2-sulfonamide], the “Agonist mode ERα Eff (%E2)” value (full-length human ERα [1]) was 1 ± 1 %E2.

For `CCN(c1ccccc1Cl)S(=O)(=O)C1CC2OC1C(c1ccc(O)cc1)=C2c1ccc(O)cc1` (stereo not shown) [Compound 11k, N-(2-Chlorophenyl)-N-ethyl-5,6-bis(4-hydroxyphenyl)-7-oxabicyclo[2.2.1]hept-5-ene-2-sulfonamide], the “Agonist mode ERα Eff (%E2)” value (full-length human ERα [1]) was 13 ± 1 %E2.

In the case of `C[C@]12CC[C@@H]3c4ccc(O)cc4C[C@@H](CCCCCCCCC[S+]([O-])CCCC(F)(F)C(F)(F)F)[C@H]3[C@@H]1CC[C@@H]2O` (stereo partly shown) [Fulvestrant, fulvestrant, reference compound], the “Agonist mode ERα Eff (%E2)” value (full-length human ERα [1]) is reported as 1 ± 1 %E2, the “ERβ profile / intrinsic activity, in words” value (full-length human ERβ; HepG2 cells) is reported as “full antagonist” and the “ERα antagonist profile, in words” value (full-length human ERα [2]) is reported as “full antagonist”.

In the case of `O=S(=O)(Oc1ccccc1)[C@H]1C[C@H]2O[C@@H]1C(c1ccc(O)cc1)=C2c1ccc(O)cc1` [OBHS, exo-5,6-bis-(4-hydroxyphenyl)-7-oxabicyclo[2.2.1]hept-5-ene-2-sulfonic acid phenyl ester], the “profile in HEC-1 cells, in words” value (HEC-1 cells) is given as “full antagonist”.

With `O=S(=O)(Nc1ccccc1)C1CC2OC1C(c1ccc(O)cc1)=C2c1ccc(O)cc1` (stereo not shown) [Compound 11a, 5,6-Bis(4-hydroxyphenyl)-N-phenyl-7-oxabicyclo[2.2.1]hept-5-ene-2-sulfonamide] the EC50 (full-length human ERα [1]) was 0.1 µM and the “Agonist mode ERα Eff (%E2)” value (full-length human ERα [1]) was 78 ± 1 %E2.

With `O=S(=O)(Nc1ccccc1Cl)C1CC2OC1C(c1ccc(O)cc1)=C2c1ccc(O)cc1` (stereo not shown) [Compound 11c, N-(2-Chlorophenyl)-5,6-bis(4-hydroxyphenyl)-7-oxabicyclo-[2.2.1]hept-5-ene-2-sulfonamide] the EC50 (full-length human ERα [1]) was 0.2 µM and the “Agonist mode ERα Eff (%E2)” value (full-length human ERα [1]) was 81 ± 4 %E2.

For `O=S(=O)(Nc1ccc(Cl)cc1)C1CC2OC1C(c1ccc(O)cc1)=C2c1ccc(O)cc1` (stereo not shown) [Compound 11d, N-(4-Chlorophenyl)-5,6-bis(4-hydroxyphenyl)-7-oxabicyclo-[2.2.1]hept-5-ene-2-sulfonamide], the “Agonist mode ERα Eff (%E2)” value (full-length human ERα [1]) was 42 ± 3 %E2.

In the case of `O=S(=O)(C1CC2OC1C(c1ccc(O)cc1)=C2c1ccc(O)cc1)N(CC(F)(F)F)c1ccc(Cl)cc1` (stereo not shown) [Compound 11o, N-(4-Chlorophenyl)-5,6-bis(4-hydroxyphenyl)-N-(2,2,2-trifluoroethyl)-7-oxabicyclo[2.2.1]hept-5-ene-2-sulfonamide], the “Agonist mode ERα Eff (%E2)” value (full-length human ERα [1]) is reported as 3 ± 3 %E2.

In the case of `CC/C(=C(\c1ccc(O)cc1)c1ccc(OCCN(C)C)cc1)c1ccccc1` [4-OH TAM, 4-OH tamoxifen, reference compound], the “Antagonist mode ERβ Eff (%E2)” value (full-length human ERβ) is reported as −20 ± 2 %E2.

With `CCN(c1ccc(OC)cc1)S(=O)(=O)C1CC2OC1C(c1ccc(O)cc1)=C2c1ccc(O)cc1` (stereo not shown) [Compound 11j, N-Ethyl-5,6-bis(4-hydroxyphenyl)-N-(4-methoxyphenyl)-7-oxabicyclo[2.2.1]hept-5-ene-2-sulfonamide] the “ERα agonist activity / intrinsic activity, in words” value (full-length human ERα [1]) was “as low as that for fulvestrant”, the “Agonist mode ERα Eff (%E2)” value (full-length human ERα [1]) was 3 ± 1 %E2 and the “ERβ profile / intrinsic activity, in words” value (full-length human ERβ; HepG2 cells) was “as low as that for fulvestrant”.

For `CCN(c1ccccc1)S(=O)(=O)C1CC2OC1C(c1ccc(O)cc1)=C2c1ccc(O)cc1` (stereo not shown) [Compound 11i, N-Ethyl-5,6-bis(4-hydroxyphenyl)-N-phenyl-7-oxabicyclo-[2.2.1]hept-5-ene-2-sulfonamide], the “ERα agonist activity / intrinsic activity, in words” value (full-length human ERα [1]) was “low efficacy compound” and the “Agonist mode ERα Eff (%E2)” value (full-length human ERα [1]) was 11 ± 1 %E2.

In the case of `CN(c1ccccc1)S(=O)(=O)C1CC2OC1C(c1ccc(O)cc1)=C2c1ccc(O)cc1` (stereo not shown) [Compound 11e, 5,6-Bis(4-hydroxyphenyl)-N-methyl-N-phenyl-7-oxabicyclo-[2.2.1]hept-5-ene-2-sulfonamide], the “Agonist mode ERα Eff (%E2)” value (full-length human ERα [1]) is reported as 31 ± 3 %E2, the IC50 (full-length human ERβ; read-out: Antagonist mode ERβ IC50, HepG2 cells, in the presence of 10^−8 M E2) is reported as 0.01 µM and the IC50 (full-length human ERα [2]; read-out: Antagonist mode ERα IC50, in the presence of 10^−8 M E2) is reported as 0.74 µM.

For `CN(c1ccccc1Cl)S(=O)(=O)C1CC2OC1C(c1ccc(O)cc1)=C2c1ccc(O)cc1` (stereo not shown) [Compound 11g, N-(2-Chlorophenyl)-5,6-bis(4-hydroxyphenyl)-N-methyl-7-oxabicyclo[2.2.1]hept-5-ene-2-sulfonamide], the EC50 (full-length human ERα [1]) was 0.008 µM, the “Agonist mode ERα Eff (%E2)” value (full-length human ERα [1]) was 33 ± 1 %E2 and the “relative binding affinity (RBA) for ERβ” value [3] was 1.59% and 1.6%. The “relative binding affinity (RBA) for ERα” value [4] was 7.17% and 7.2%.
